# Molecular target: human DGKα (Homo sapiens, UniProt P23743)
# Assay: biochemical
# 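Also: recombinant enzyme acting on 18:1 DAG micelles (with POPS and octylglucoside) plus 200 µM ATP, 1 h at 25 °C, ADP generated read out by ADP-Glo luminescence.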
# Sequence of human DGKα (P23743 whole entry): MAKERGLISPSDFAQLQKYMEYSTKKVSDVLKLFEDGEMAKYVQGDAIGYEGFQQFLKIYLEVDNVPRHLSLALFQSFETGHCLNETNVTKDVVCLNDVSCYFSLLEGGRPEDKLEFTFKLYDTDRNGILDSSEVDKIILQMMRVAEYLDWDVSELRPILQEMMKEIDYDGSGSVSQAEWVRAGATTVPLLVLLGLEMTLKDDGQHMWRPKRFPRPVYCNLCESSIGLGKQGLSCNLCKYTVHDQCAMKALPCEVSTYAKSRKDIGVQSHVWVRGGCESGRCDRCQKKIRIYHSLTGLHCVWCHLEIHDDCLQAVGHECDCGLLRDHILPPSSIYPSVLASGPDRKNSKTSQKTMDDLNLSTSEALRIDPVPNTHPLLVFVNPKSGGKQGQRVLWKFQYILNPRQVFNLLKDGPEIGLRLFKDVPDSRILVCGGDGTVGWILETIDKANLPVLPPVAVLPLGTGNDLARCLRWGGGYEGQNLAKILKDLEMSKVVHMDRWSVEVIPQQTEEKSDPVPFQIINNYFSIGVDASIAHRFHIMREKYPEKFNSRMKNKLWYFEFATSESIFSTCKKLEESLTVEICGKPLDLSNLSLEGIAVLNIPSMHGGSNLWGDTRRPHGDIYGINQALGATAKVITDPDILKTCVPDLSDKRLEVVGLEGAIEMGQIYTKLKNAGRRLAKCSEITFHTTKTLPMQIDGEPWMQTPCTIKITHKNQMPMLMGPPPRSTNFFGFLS
row,IC50,Structure (SMILES)
1,10.5 nM,"CCC1(C#Cc2cccc3c2OCCCN3c2nc3nnn(C)c3c3cncc(F)c23)COC1 [Example 1, 9-((3-ethyloxetan-3-yl)ethynyl)-5-(6-fluoro-1-methyl-1H-[1,2,3]triazolo[4,5-c][2,6]naphthyridin-5-yl)-2,3,4,5-tetrahydrobenzo[b][1,4]oxazepine]"
2,2.73 nM,"CCC1(C#Cc2cccc3c2COCCN3c2nc3nnn(C)c3c3cncc(F)c23)COC1 [Example 3, 6-((3-ethyloxetan-3-yl)ethynyl)-1-(6-fluoro-1-methyl-1H-[1,2,3]triazolo[4,5-c][2,6]naphthyridin-5-yl)-1,2,3,5-tetrahydrobenzo[e][1,4]oxazepine]"
3,2.26 nM,"Cn1nnc2nc(N3CCOCc4c(C#CC5(C)COC5)cccc43)c3c(F)cncc3c21 [Example 4, 1-(6-fluoro-1-methyl-1H-[1,2,3]triazolo[4,5-c][2,6]naphthyridin-5-yl)-6-((3-methyloxetan-3-yl)ethynyl)-1,2,3,5-tetrahydrobenzo[e][1,4]oxazepine]"
4,20.8 nM,"Cn1nnc2nc(N3CCCc4c(C#CC(C)(C)C#N)cccc43)c3c(F)cncc3c21 [Example 5, 4-(1-(6-fluoro-1-methyl-1H-[1,2,3]triazolo[4,5-c][2,6]naphthyridin-5-yl)-1,2,3,4-tetrahydroquinolin-5-yl)-2,2-dimethylbut-3-ynenitrile]"
5,11.5 nM,"Cn1nnc2nc(N3CCCOc4c(C#CC5(C)CC5)cccc43)c3c(F)cncc3c21 [Example 7, 5-(6-fluoro-1-methyl-1H-[1,2,3]triazolo[4,5-c][2,6]naphthyridin-5-yl)-9-((1-methylcyclopropyl)ethynyl)-2,3,4,5-tetrahydrobenzo[b][1,4]oxazepine]"
6,10.2 nM,"Cn1nnc2nc(N3CCCOc4c(C#CC(C)(C)C#N)cccc43)c3c(F)cncc3c21 [Example 8, 4-(5-(6-fluoro-1-methyl-1H-[1,2,3]triazolo[4,5-c][2,6]naphthyridin-5-yl)-2,3,4,5-tetrahydrobenzo[b][1,4]oxazepin-9-yl)-2,2-dimethylbut-3-ynenitrile]"
7,13 nM,"Cn1nnc2nc(N3CCCOc4c(C#CC(C)(C)O)cccc43)c3c(F)cncc3c21 [Example 10, 4-(5-(6-fluoro-1-methyl-1H-[1,2,3]triazolo[4,5-c][2,6]naphthyridin-5-yl)-2,3,4,5-tetrahydrobenzo[b][1,4]oxazepin-9-yl)-2-methylbut-3-yn-2-ol]"
8,8.59 nM,"Cn1nnc2nc(N3CCOCc4c(C#CC5(C)CC5)cccc43)c3c(F)cncc3c21 [Example 11, 1-(6-fluoro-1-methyl-1H-[1,2,3]triazolo[4,5-c][2,6]naphthyridin-5-yl)-6-((1-methylcyclopropyl)ethynyl)-1,2,3,5-tetrahydrobenzo[e][1,4]oxazepine]"
9,5.42 nM,"Cn1nnc2nc(N3CCCCc4c(C#CC(C)(C)O)cccc43)c3c(F)cncc3c21 [Example 15, 4-(1-(6-fluoro-1-methyl-1H-[1,2,3]triazolo[4,5-c][2,6]naphthyridin-5-yl)-2,3,4,5-tetrahydro-1H-benzo[b]azepin-6-yl)-2-methylbut-3-yn-2-ol]"
10,42.2 nM,"Cn1nnc2nc(N(CC(F)F)c3cc(F)cc(C#CC(C)(C)C#N)c3)c3c(F)cncc3c21 [Example 16, 4-(3-((2,2-difluoroethyl)(6-fluoro-1-methyl-1H-[1,2,3]triazolo[4,5-c][2,6]naphthyridin-5-yl)amino)-5-fluorophenyl)-2,2-dimethylbut-3-ynenitrile]"
11,61.8 nM,"Cn1nnc2nc(N(CC(F)F)c3ccnc(C#CC4(C)CC4)c3)c3c(F)c(F)ccc3c21 [Example 17, N-(2,2-difluoroethyl)-6,7-difluoro-1-methyl-N-(2-((1-methylcyclopropyl)ethynyl)pyridin-4-yl)-1H-[1,2,3]triazolo[4,5-c]isoquinolin-5-amine]"
12,31.4 nM,"Cn1nnc2nc(N(CC(F)F)c3ccnc(C#CC4(C)CC4)c3)c3c(F)cncc3c21 [Example 19, N-(2,2-difluoroethyl)-6-fluoro-1-methyl-N-(2-((1-methylcyclopropyl)ethynyl)pyridin-4-yl)-1H-[1,2,3]triazolo[4,5-c][2,6]naphthyridin-5-amine]"
13,109 nM,"Cn1nnc2nc(N(CC(F)F)c3ccnc(C#CC(C)(C)C#N)c3)c3c(F)cncc3c21 [Example 20, 4-(4-((2,2-difluoroethyl)(6-fluoro-1-methyl-1H-[1,2,3]triazolo[4,5-c][2,6]naphthyridin-5-yl)amino)pyridin-2-yl)-2,2-dimethylbut-3-ynenitrile]"
14,124 nM,"Cn1nnc2nc(N3CCCc4c(C#CC5(C)CC5)cncc43)c3cc(F)ccc3c21 [Example 22, 7-fluoro-1-methyl-5-(5-((1-methylcyclopropyl)ethynyl)-3,4-dihydro-1,7-naphthyridin-1(2H)-yl)-1H-[1,2,3]triazolo[4,5-c]isoquinoline]"
15,54.5 nM,"Cn1nnc2nc(N(CC(F)F)c3ccnc(C#CC4(C)CC4)c3)c3c(F)cccc3c21 [Example 24, N-(2,2-difluoroethyl)-6-fluoro-1-methyl-N-(2-((1-methylcyclopropyl)ethynyl)pyridin-4-yl)-1H-[1,2,3]triazolo[4,5-c]isoquinolin-5-amine]"
16,39.2 nM,"Cn1nnc2nc(N(CC(F)F)c3ccnc(C#CC4(C)CC4)c3)c3cc(F)ccc3c21 [Example 25, N-(2,2-difluoroethyl)-7-fluoro-1-methyl-N-(2-((1-methylcyclopropyl)ethynyl)pyridin-4-yl)-1H-[1,2,3]triazolo[4,5-c]isoquinolin-5-amine]"
17,143 nM,"Cn1nnc2nc(N(CC(F)F)c3ccnc(C#CC(C)(C)O)c3)c3cc(F)ccc3c21 [Example 27, 4-(4-((2,2-difluoroethyl)(7-fluoro-1-methyl-1H-[1,2,3]triazolo[4,5-c]isoquinolin-5-yl)amino)pyridin-2-yl)-2-methylbut-3-yn-2-ol]"
18,160 nM,"Cn1nnc2nc(N3CCCc4c(C#CC(C)(C)C#N)cncc43)c3c(F)cccc3c21 [Example 30, 4-(1-(6-fluoro-1-methyl-1H-[1,2,3]triazolo[4,5-c]isoquinolin-5-yl)-1,2,3,4-tetrahydro-1,7-naphthyridin-5-yl)-2,2-dimethylbut-3-ynenitrile]"
19,93 nM,"Cn1nnc2nc(N3CCCc4c(C#CC(C)(C)O)cncc43)c3c(F)cncc3c21 [Example 32, 4-(1-(6-fluoro-1-methyl-1H-[1,2,3]triazolo[4,5-c][2,6]naphthyridin-5-yl)-1,2,3,4-tetrahydro-1,7-naphthyridin-5-yl)-2-methylbut-3-yn-2-ol]"
20,26.1 nM,"Cn1nnc2nc(N(CC(F)F)c3cc(F)cc(C#CC(C)(C)O)c3)c3cc(F)cnc3c21 [Example 34, 4-(3-((2,2-difluoroethyl)(7-fluoro-1-methyl-1H-[1,2,3]triazolo[4,5-h][1,6]naphthyridin-5-yl)amino)-5-fluorophenyl)-2-methylbut-3-yn-2-ol]"
21,50.7 nM,"Cn1nnc2nc(N3CCCc4c(C#CC(C)(C)C#N)cccc43)c3cc(F)cnc3c21 [Example 35, 4-(1-(7-fluoro-1-methyl-1H-[1,2,3]triazolo[4,5-h][1,6]naphthyridin-5-yl)-1,2,3,4-tetrahydroquinolin-5-yl)-2,2-dimethylbut-3-ynenitrile]"
22,51.6 nM,"Cn1nnc2nc(N(CC(F)F)c3cc(F)cc(C#CC4(C(F)(F)F)CC4)c3)c3c(F)cncc3c21 [Example 38, N-(2,2-difluoroethyl)-6-fluoro-N-(3-fluoro-5-((1-(trifluoromethyl)cyclopropyl)ethynyl)phenyl)-1-methyl-1H-[1,2,3]triazolo[4,5-c][2,6]naphthyridin-5-amine]"
23,41.9 nM,"Cn1nnc2nc(N3CCCc4c(C#CC5(C(F)(F)F)CC5)cccc43)c3c(F)cncc3c21 [Example 40, 6-fluoro-1-methyl-5-(5-((1-(trifluoromethyl)cyclopropyl)ethynyl)-3,4-dihydroquinolin-1(2H)-yl)-1H-[1,2,3]triazolo[4,5-c][2,6]naphthyridine]"
24,34.1 nM,"Cn1nnc2nc(N(CC(F)F)c3cc(F)cc(C#CC(C)(C)O)c3)c3cc(F)ccc3c21 [Example 43, 4-(3-((2,2-difluoroethyl)(7-fluoro-1-methyl-1H-[1,2,3]triazolo[4,5-c]isoquinolin-5-yl)amino)-5-fluorophenyl)-2-methylbut-3-yn-2-ol]"
25,19.4 nM,"Cn1nnc2nc(N3CCCc4c(C#CC(C)(C)O)cccc43)c3c(F)cccc3c21 [Example 45, 4-(1-(6-fluoro-1-methyl-1H-[1,2,3]triazolo[4,5-c]isoquinolin-5-yl)-1,2,3,4-tetrahydroquinolin-5-yl)-2-methylbut-3-yn-2-ol]"
26,64.9 nM,"Cn1nnc2nc(N(CC(F)F)c3cc(F)cc(C#CC4(C(F)(F)F)CC4)c3)c3c(F)cccc3c21 [Example 48, N-(2,2-difluoroethyl)-6-fluoro-N-(3-fluoro-5-((1-(trifluoromethyl)cyclopropyl)ethynyl)phenyl)-1-methyl-1H-[1,2,3]triazolo[4,5-c]isoquinolin-5-amine]"
27,23.2 nM,"Cn1nnc2nc(N3CCCc4c(C#CC5(C(F)(F)F)CC5)cccc43)c3ccc(Cl)cc3c21 [Example 50, 8-chloro-1-methyl-5-(5-((1-(trifluoromethyl)cyclopropyl)ethynyl)-3,4-dihydroquinolin-1(2H)-yl)-1H-[1,2,3]triazolo[4,5-c]isoquinoline]"
28,22.5 nM,"Cn1nnc2nc(N(CC(F)F)c3cc(F)cc(C#CC(C)(C)O)c3)c3ccc(Cl)cc3c21 [Example 51, 4-(3-((8-chloro-1-methyl-1H-[1,2,3]triazolo[4,5-c]isoquinolin-5-yl)(2,2-difluoroethyl)amino)-5-fluorophenyl)-2-methylbut-3-yn-2-ol]"

# — patent publication US11999733B2, “Diacylglycerol kinase modulating compounds” (Gilead Sciences, Inc., priority 2021, dated 2024)
